Patent US8530489B2 (Vertex Pharmaceuticals Incorporated, priority 2006, dated 2013)

Target: PLK1 (Homo sapiens, UniProt P53350)
Experiment: PLK1 Inhibition Assay I (radioactive-phosphate incorporation)
Format: biochemical
Settings: Ki(app); PLK1 Inhibition Assay I or II (table does not say which)
Procedure, shortened: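 Ki(app) values came from non-linear regression of initial rates after background subtraction, with phosphopeptide measured by phosphocellulose filter binding and scintillation counting. PLK1 at 2 nM was preincubated with compound (typically from 10 μM, 2-fold dilutions) for 10 min, then run 240 min at 25° C with 350 μM [γ-33P]ATP and 450 μM peptide substrate in HEPES pH 7.5 buffer.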

PLK1, sequence (P53350 whole entry): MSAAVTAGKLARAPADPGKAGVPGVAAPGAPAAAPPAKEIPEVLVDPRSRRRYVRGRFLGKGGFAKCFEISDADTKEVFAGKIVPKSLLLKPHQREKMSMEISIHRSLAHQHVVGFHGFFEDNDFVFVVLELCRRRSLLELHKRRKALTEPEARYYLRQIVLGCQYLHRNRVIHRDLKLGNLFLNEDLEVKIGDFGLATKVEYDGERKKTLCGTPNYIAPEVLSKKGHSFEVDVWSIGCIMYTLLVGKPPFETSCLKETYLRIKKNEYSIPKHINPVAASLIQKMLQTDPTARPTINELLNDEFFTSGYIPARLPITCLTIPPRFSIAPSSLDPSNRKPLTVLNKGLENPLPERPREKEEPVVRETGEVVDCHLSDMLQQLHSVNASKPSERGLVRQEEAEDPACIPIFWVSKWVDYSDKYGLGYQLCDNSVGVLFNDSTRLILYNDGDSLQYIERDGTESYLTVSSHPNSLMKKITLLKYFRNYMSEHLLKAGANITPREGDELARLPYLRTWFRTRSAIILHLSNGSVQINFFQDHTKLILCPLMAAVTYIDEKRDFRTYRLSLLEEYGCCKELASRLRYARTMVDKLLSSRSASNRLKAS

Ki | Structure (SMILES)
< 3 nM | C[C@@H](Nc1ncc(C#N)c(-c2c[nH]c3ncc(C(F)(F)F)cc23)n1)[C@H]1CC[C@H](NC(=O)CN)CC1 [Compound I-264, 2-amino-N-((1R,4r)-4-((1R)-1-(5-cyano-4-(5-(trifluoromethyl)-1H-pyrrolo[2,3-b]pyridin-3-yl)pyrimidin-2-ylamino)ethyl)cyclohexyl)acetamide]
< 3 nM | C[C@@H](O)C(=O)N[C@H]1CC[C@H]([C@@H](C)Nc2ncc(C#N)c(-c3c[nH]c4ncc(C(F)(F)F)cc34)n2)CC1 [Compound I-265, Trans-(2R)—N-(4-((1R)-1-(5-cyano-4-(5-(trifluoromethyl)-1H-pyrrolo[2,3-b]pyridin-3-yl)pyrimidin-2-ylamino)ethyl)cyclohexyl)-2-hydroxypropanamide]
< 3 nM | CC(Nc1ncc(C#N)c(-c2c[nH]c3ncc(C(F)(F)F)cc23)n1)c1ccc(C2(O)CCN(C)CC2)nc1 (stereo not shown) [Compound I-266, 2-(1-(6-(4-hydroxy-1-methylpiperidin-4-yl)pyridin-3-yl)ethylamino)-4-(5-(trifluoromethyl)-1H-pyrrolo[2,3-b]pyridin-3-yl)pyrimidine-5-carbonitrile]
3 to 40 nM | CC(Nc1ncc(C#N)c(-c2c[nH]c3ncc(C(F)(F)F)cc23)n1)[C@H]1C[C@H](O)C1 (stereo partly drawn) [Compound I-269, 2-((S)-1-((1r,3S)-3-hydroxycyclobutyl)ethylamino)-4-(5-(trifluoromethyl)-1H-pyrrolo[2,3-b]pyridin-3-yl)pyrimidine-5-carbonitrile]
< 3 nM | CC(Nc1ncc(C#N)c(-c2c[nH]c3ncc(C(F)(F)F)cc23)n1)[C@H]1C[C@@H](O)C1 (stereo partly drawn) [Compound I-270, 2-((S)-1-((1s,3R)-3-hydroxycyclobutyl)ethylamino)-4-(5-(trifluoromethyl)-1H-pyrrolo[2,3-b]pyridin-3-yl)pyrimidine-5-carbonitrile]
3 to 40 nM | CC(Nc1ncc(C#N)c(-c2c[nH]c3ncc(C(F)(F)F)cc23)n1)c1ccc(O[C@@H]2CCN(C)C2)nc1 (stereo partly drawn) [Compound I-271, 2-(1-(6-((R)-1-methylpyrrolidin-3-yloxy)pyridin-3-yl)ethylamino)-4-(5-(trifluoromethyl)-1H-pyrrolo[2,3-b]pyridin-3-yl)pyrimidine-5-carbonitrile]
3 to 40 nM | C[C@@H](Nc1ncc(C#N)c(-c2c[nH]c3ncc(C(F)(F)F)cc23)n1)c1ccc(N[C@H]2CCN(C)C2)nc1 [Compound I-280, 2-(1-(6-((S)-1-methylpyrrolidin-3-ylamino)pyridin-3-yl)ethylamino)-4-(5-(trifluoromethyl)-1H-pyrrolo[2,3-b]pyridin-3-yl)pyrimidine-5-carbonitrile]
< 3 nM | C[C@@H](Nc1ncc(C#N)c(-c2c[nH]c3ncc(C(F)(F)F)cc23)n1)c1ccc(N(C)CCN(C)C)nc1 [Compound I-282, 2-((R)-1-(6-((2-(dimethylamino)ethyl)(methyl)amino)pyridin-3-yl)ethylamino)-4-(5-(trifluoromethyl)-1H-pyrrolo[2,3-b]pyridin-3-yl)pyrimidine-5-carbonitrile]
3 to 40 nM | C[C@@H](Nc1ncc(C#N)c(-c2c[nH]c3ncc(C(F)(F)F)cc23)n1)c1ccc(N(C)CCCN(C)C)nc1 [Compound I-283, 2-((R)-1-(6-((3-(dimethylamino)propyl)(methyl)amino)pyridin-3-yl)ethylamino)-4-(5-(trifluoromethyl)-1H-pyrrolo[2,3-b]pyridin-3-yl)pyrimidine-5-carbonitrile]
< 3 nM | CC(C)N1CCN(c2ccc([C@@H](C)Nc3ncc(C#N)c(-c4c[nH]c5ncc(C(F)(F)F)cc45)n3)cn2)CC1 [Compound I-284, 2-((R)-1-(6-(4-isopropylpiperazin-1-yl)pyridin-3-yl)ethylamino)-4-(5-(trifluoromethyl)-1H-pyrrolo[2,3-b]pyridin-3-yl)pyrimidine-5-carbonitrile]
< 3 nM | CCN1CCN(c2ccc([C@@H](C)Nc3ncc(C#N)c(-c4c[nH]c5ncc(C(F)(F)F)cc45)n3)cn2)CC1 [Compound I-285, 2-((R)-1-(6-(4-ethylpiperazin-1-yl)pyridin-3-yl)ethylamino)-4-(5-(trifluoromethyl)-1H-pyrrolo[2,3-b]pyridin-3-yl)pyrimidine-5-carbonitrile]
3 to 40 nM | C[C@@H](Nc1ncc(C#N)c(-c2c[nH]c3ncc(C(F)(F)F)cc23)n1)c1ccc(N2CC[C@@H](N(C)C)C2)nc1 [Compound I-286, 2-((R)-1-(6-((R)-3-(dimethylamino)pyrrolidin-1-yl)pyridin-3-yl)ethylamino)-4-(5-(trifluoromethyl)-1H-pyrrolo[2,3-b]pyridin-3-yl)pyrimidine-5-carbonitrile]
3 to 40 nM | CCN(CC)CCN(C)c1ccc([C@@H](C)Nc2ncc(C#N)c(-c3c[nH]c4ncc(C(F)(F)F)cc34)n2)cn1 [Compound I-287, 2-((R)-1-(6-((2-(diethylamino)ethyl)(methyl)amino)pyridin-3-yl)ethylamino)-4-(5-(trifluoromethyl)-1H-pyrrolo[2,3-b]pyridin-3-yl)pyrimidine-5-carbonitrile]
3 to 40 nM | C[C@@H](Nc1ncc(C#N)c(-c2c[nH]c3ncc(C(F)(F)F)cc23)n1)c1ccc(N2CC[C@H](N3CCCC3)C2)nc1 [Compound I-288, 2-((R)-1-(6-((S)-1,3′-bipyrrolidin-1′-yl)pyridin-3-yl)ethylamino)-4-(5-(trifluoromethyl)-1H-pyrrolo[2,3-b]pyridin-3-yl)pyrimidine-5-carbonitrile]
< 3 nM | CNCCCN(C)c1ccc([C@@H](C)Nc2ncc(C#N)c(-c3c[nH]c4ncc(C(F)(F)F)cc34)n2)cn1 [Compound I-289, 2-((R)-1-(6-(methyl(3-(methylamino)propyl)amino)pyridin-3-yl)ethylamino)-4-(5-(trifluoromethyl)-1H-pyrrolo[2,3-b]pyridin-3-yl)pyrimidine-5-carbonitrile]
3 to 40 nM | C[C@@H](Nc1ncc(C#N)c(-c2c[nH]c3ncc(C(F)(F)F)cc23)n1)c1ccc(N2CC[C@H](N(C)C)C2)nc1 [Compound I-290, 2-((R)-1-(6-((S)-3-(dimethylamino)pyrrolidin-1-yl)pyridin-3-yl)ethylamino)-4-(5-(trifluoromethyl)-1H-pyrrolo[2,3-b]pyridin-3-yl)pyrimidine-5-carbonitrile]
< 3 nM | C[C@@H](Nc1ncc(C#N)c(-c2c[nH]c3ncc(C(F)(F)F)cc23)n1)c1ccc(N2CCN3CCC[C@H]3C2)nc1 [Compound I-291, 2-((R)-1-(6-((S)-hexahydropyrrolo[1,2-a]pyrazin-2(1H)-yl)pyridin-3-yl)ethylamino)-4-(5-(trifluoromethyl)-1H-pyrrolo[2,3-b]pyridin-3-yl)pyrimidine-5-carbonitrile]
< 3 nM | C[C@@H](Nc1ncc(C#N)c(-c2c[nH]c3ncc(C(F)(F)F)cc23)n1)c1ccc(N2CCCN(C)CC2)nc1 [Compound I-292, 2-((R)-1-(6-(4-methyl-1,4-diazepan-1-yl)pyridin-3-yl)ethylamino)-4-(5-(trifluoromethyl)-1H-pyrrolo[2,3-b]pyridin-3-yl)pyrimidine-5-carbonitrile]
< 3 nM | CC(Nc1ncc(C#N)c(-c2c[nH]c3ncc(C(F)(F)F)cc23)n1)c1ccc(N[C@@H]2CCN(C)C2)nc1 (stereo partly drawn) [Compound I-293, 2-(1-(6-((R)-1-methylpyrrolidin-3-ylamino)pyridin-3-yl)ethylamino)-4-(5-(trifluoromethyl)-1H-pyrrolo[2,3-b]pyridin-3-yl)pyrimidine-5-carbonitrile]
